Measurements published in article PMC12733166, “Enhancing Cytosolic Internalization of [^177Lu]Lu–iPSMA in Prostate Cancer Cells: The Effect of Conjugating a GRP78 Inhibitor to the Radiotherapeutic Molecule” (International Journal of Molecular Sciences, 2025).
Starred links: 1 amine or outer side, 2 acyl side, 3 side chain; linkers in the order of their positions; H or OH if unused. Non-standard residues stand in square brackets, D forms with d. Residues, ends and D or L forms follow the SMILES beside them. *: point of attachment. X2 = O=C(O)CC[C@@H](NC(=O)N[C@H](CCCCNC(=O)[C@H](Cc1ccc2ccccc2c1)NC(=O)CCCN1C(=O)C[C@@H](*)C1=O)C(=O)O)C(=O)O; DOTA = O=C(O)CN1CCN(CC(=O)O)CCN(CC(=O)*)CCN(CC(=O)O)CC1; X1 = O=C(c1ccc(NN[*:1])nc1)[*:2]

Assays:
[1] = tested on: LNCaP cells (PSMA+, CS-GRP78+); test: Cytosolic and nuclear internalization (subcellular fractionation) in LNCaP cells; type: cell-based, human; settings: LNCaP cells 1 × 10^5/200 µL, 37 kBq/4 nmol, 1 h, 37 °C; for Cytosolic internalization: gamma counting of cytosolic fraction; for Nuclear internalization: gamma counting of nuclear extract
Procedure: (§1) PC-3 (CRL-1435; ATCC, Manassas, VA, USA) and LNCaP human prostate cancer cells (CRL-1740; ATCC, USA) were cultured in Roswell Park Memorial Institute medium (RPMI; Sigma-Aldrich, USA) at 37 °C, 85% humidity, 5% CO2, and 10% fetal bovine serum.
(§2) Assays were performed to evaluate the cellular uptake and subcellular distribution of [^177Lu]Lu–iPSMA–iGRP78 and the control monomers [^177Lu]Lu–iPSMA and [^177Lu]Lu–iGRP78 in two prostate cancer cell lines: LNCaP (PSMA+, SC-GRP78+) and PC3 (PSMA^−, CS-GRP78^−). Cells (1 × 10^5/200 µL) were incubated with the radiopharmaceutical (37 kBq/4 nmol) for 1 h at 37 °C to assess the distribution between the cytoplasm and nucleus.
Following incubation, tubes were measured with a NaI(Tl) crystal scintillation gamma-counter (NML Inc., TX, USA) to determine 100% of the initial activity. The tubes were centrifuged at 250× g for 5 min, and the supernatant was withdrawn. The activity in the pellet was measured to determine the percentage of cellular uptake (surface uptake) relative to the initial activity. Next, the nuclei and cytoplasm of the cells were separated using a Nuclear Extraction Kit (Chemicon International, Inc., Temecula, CA, USA). To prepare for fractionation, the cells were first washed with 1 mL of 0.2 M acetic acid/0.5 M NaCl. The tubes were centrifuged at 250× g for 5 min, washed with phosphate-buffered saline (PBS), and then centrifuged again to ensure thorough removal of extracellular components.
(§3) After centrifugation, the cell pellet, which corresponds to the internalized activity, was quantified using a gamma counter. The radioactivity measured in the pellet was defined as 100% of the internalized activity.
The pellet was resuspended in cytoplasmic lysis buffer with dithiothreitol and a protease inhibitor cocktail to maintain protein stability during lysis. Mechanical disruption was performed by passing the suspension through a 27-gauge needle multiple times using a syringe to ensure complete cell breakdown. The resulting lysate underwent centrifugation at 8000× g for 20 min at 4 °C. The supernatant, representing the cytosolic fraction, was collected and analyzed for radioactivity via gamma counting.
The remaining pellet, containing the nuclear fraction, was resuspended in nuclear extraction buffer supplemented with dithiothreitol and a protease inhibitor cocktail. Nuclear disruption was carried out before centrifuging at 16,000× g for 5 min at 4 °C. The supernatant contained the nuclear extract, while the membrane components remained in the pellet.
(§4) Radioactivity measurements were conducted on both the nuclear extract and the membrane pellet fractions using a gamma counter. The percentage of activity within each subcellular compartment was calculated for each time point, allowing for evaluation of the distribution of [^177Lu]Lu–iPSMA–iGRP78 and control monomers [^177Lu]Lu–iPSMA and [^177Lu]Lu–iGRP78 between the cytoplasmic and nuclear compartments of prostate cancer cells over time.

LNCaP cells = test: Cytotoxicity / cell viability by flow cytometry (Muse Count & Viability kit); type: cell-based, human; settings: LNCaP 5 × 10^4 cells/200 µL, 1.4 MBq, 5 h (15 Gy/h whole-cell dose); triplicate (n = 3) from two independent experiments, mean ± SD
Procedure: The effects of radioligands on LNCaP cell viability were evaluated using advanced flow cytometry techniques. The radioligands tested were [^177Lu]Lu–iPSMA–iGRP78, [^177Lu]Lu–iPSMA, and [^177Lu]Lu–iGRP78. This evaluation was conducted to assess their impact on the survival of prostate cancer cells. Cell viability was measured using the Count & Viability kit (Muse®). Prior to analysis, the Muse® cell analyzer (Merck Millipore, Burlington, MA, USA) was calibrated with the verification kit to ensure its accuracy. First, a fresh, untreated LNCaP cell sample was analyzed to establish reference parameters, including cell size, granularity, and natural cell viability. To accurately distinguish between live and dead cells, an aliquot of the same cell population was treated with 0.05% Triton X-100. This treatment defined the dead cell detection window in the analyzer. Next, a specific detection window was established for LNCaP cells to differentiate between viable and non-viable cells during analysis accurately. For each experimental group, a cell suspension containing 5 × 10^4 cells in 200 µL was prepared. The cells were then treated as follows: 1.4 MBq of (a) [^177Lu]Lu–iPSMA–iGRP78, (b) [^177Lu]Lu–iPSMA, (c) [^177Lu]Lu–iGRP78, and (d) untreated. After five hours of treatment (15 Gy/h at whole-cell dose), the cells were mixed with 450 µL of viability reagent and incubated for 5 min at room temperature in the dark. All measurements were performed in triplicate (n = 3) from two independent experiments to ensure reliability and reproducibility. To determine the radiation absorbed dose rate to the whole cell (15 Gy/h), the total number of nuclear transformations (N) was calculated. This value was normalized to the administered activity unit (MBq·s/MBq) by integrating the activity (A(t)) from time zero to five hours. Next, the absorbed dose was calculated by multiplying N by the dose factor (DF: from cell to cell) (Gy/Bq·s), as determined by MIRDcell software, considering the crossfire absorbed dose (version 2.1).

[2] = tested on: PC3 cells (PSMA−, CS-GRP78−); test: Cytosolic and nuclear internalization (subcellular fractionation) in PC3 cells; type: cell-based, human; settings: PC3 cells 1 × 10^5/200 µL, 37 kBq/4 nmol, 1 h, 37 °C
Procedure: as §1, §2
Following incubation, tubes were measured with a NaI(Tl) crystal scintillation gamma-counter (NML Inc., TX, USA) to determine 100% of the initial activity. The tubes were centrifuged at 250× g for 5 min, and the supernatant was withdrawn. The activity in the pellet was measured to determine the percentage of cellular uptake (surface uptake) relative to the initial activity. […]
as §3
The pellet was resuspended in cytoplasmic lysis buffer with dithiothreitol and a protease inhibitor cocktail to maintain protein stability during lysis. […] The supernatant, representing the cytosolic fraction, was collected and analyzed for radioactivity via gamma counting. […]
as §4

[3] = Stability in PBS (radiochemical purity by radio-HPLC); type: physicochemical; settings: 10 µL (18.5 MBq) in 1 mL PBS, 3 h, 37 °C; reverse-phase radio-HPLC; n = 3
Procedure: The quality control assessed bacterial endotoxins, sterility, pH, and appearance, following the general methods of the Mexican Pharmacopeia. Radiochemical purity was evaluated by reversed-phase radio-high-performance liquid chromatography (radioHPLC) ( LC-40DxR, Shimadzu, Kyoto, Japan). A shim-pack GIST C18 column (Shimadzu: 4.6 mm × 25 cm, 5 μm particle size) with a linear gradient from 100% to 10% of mobile phase A (0.1% TFA aqueous solution) and from 0% to 90% of phase B (0.1% TFA in acetonitrile) in 20 min at 1 mL/min. The retention time of [^177Lu]Lu–iPSMA–iGRP78 was 17.4 ± 0.3 min, and 3.7 ± 0.2 min for ^177LuCl3. Radiochemical purities of [^177Lu]Lu–iPSMA (tR = 15.2 ± 0.2 min) and [^177Lu]Lu–iGRP78 (tR = 19.2 ± 0.4 min) were also verified to be higher than 95%.
To assess the in vitro stability of [^177Lu]Lu-iPSMA-iGRP78, 10 µL (18.5 MBq) of the radiopharmaceutical was diluted in either 1 mL of PBS or 1 mL of human serum (NIST-909c certified human serum sample; Sigma-Aldrich, St. Louis, MO, USA) (n = 3). The mixtures were incubated for 3 h at 37 °C. Then, 0.5 mL of acetonitrile was added to the human serum samples to precipitate the proteins, and the mixtures were centrifuged at 500× g for 10 min. The radiochemical purity of the human serum supernatants and PBS solution samples was analyzed by reverse-phase radio-HPLC, as described above.

[4] = tested on: LNCaP cells (PSMA+, CS-GRP78+); test: Saturation binding assay on LNCaP cells; parameters: species or system human; settings: 1-100 nM radioligand, 4 °C, 2 h, non-specific binding with 1 μM PMPA, n = 3 from two independent experiments; for Kd: GraphPad Prism, read-out: Dissociation constant (Kd)
Procedure: as §1
The affinity comparison between the [^177Lu]Lu–iPSMA–iGRP78 dimer and [^177Lu]Lu–iPSMA monomer was performed in LNCaP cells. For the saturation binding analysis, cells were seeded on 96-well plate cultures ([…]) and incubated at 37 °C under a CO2 atmosphere for 24 h, then the plates were placed on ice for 30 min. Next, they were incubated at 4 °C for 2 h with increasing concentrations (from 1nM to 100 nM) of the monomer [^177Lu]^natLu-iPSMA or the dimer [^177Lu]^natLu-iPSMA-iGRP78. Finally, cells were washed with PBS followed by the addition of 1M NaOH for cell lysis. This solution was measured for radioactivity using a NaI(Tl) gamma counter (NML Inc., Littleton, CO, USA). Non-specific binding of [^177Lu]Lu–iPSMA–iGRP78 and [^177Lu]Lu–iPSMA was determined under the same experimental conditions described above but in the presence of PMPA (2-(phosphonomethyl) pentanedioic acid) at a final concentration of 1 μM. The dissociation constant (Kd) and maximum number of binding sites (Bmax) were calculated by a lineal regression analysis with data (n = 3) from two independent experiments using the GraphPad Prism software (v. 10.6.1).

CC[C@@H](C)[C@@H](NC(=O)[C@@H](Cc1c[nH]c2ccccc12)NC(=O)[C@H]1CCCN1C(=O)[C@@H](Cc1ccccc1)NC(=O)[C@H](NC(=O)[C@@H](Cc1c[nH]c2ccccc12)NC(=O)[C@@H](CS)NC(=O)c1ccc(NNC(=O)CN2CCN(CC(=O)O)CCN(CC(=O)O)CCN(CC(=O)O)CC2)nc1)[C@H](C)CC)C(=O)N[C@H](CCC(N)=O)C(=O)N[C@H](CC(C)C)C(=O)O [[^177Lu]Lu–iGRP78, metal not drawn] ({DOTA}-[X1][dC][dW][dI][dF][dP][dW][dI][dQ][dL]-OH)
Cytosolic internalization [1]: highest internalization values | Nuclear internalization [1]: highest internalization values | Dead cells (LNCaP cells): 68.93 ± 5.05% | Uptake in cellular cytosol and nucleus [2]: low uptake | Radiochemical purity, unchanged after incubation in PBS [3]: exceeding 97%

O=C(O)CC[C@@H](NC(=O)N[C@H](CCCCNC(=O)[C@H](Cc1ccc2ccccc2c1)NC(=O)c1ccc(NNC(=O)CN2CCN(CC(=O)O)CCN(CC(=O)O)CCN(CC(=O)O)CC2)nc1)C(=O)O)C(=O)O [[^177Lu]Lu–iPSMA, metal not drawn]
Cytosolic internalization [1]: 6.45 ± 0.60% | Nuclear internalization [1]: no uptake in the cell nucleus | Dead cells (LNCaP cells): 38.63 ± 6.13% | Uptake in cellular cytosol and nucleus [2]: low uptake | Radiochemical purity, unchanged after incubation in PBS [3]: exceeding 97% | Maximum number of binding sites (Bmax) [4]: 0.032 nM | Kd [4]: 2.25 nM

CC[C@@H](C)[C@@H](NC(=O)[C@@H](Cc1c[nH]c2ccccc12)NC(=O)[C@H]1CCCN1C(=O)[C@@H](Cc1ccccc1)NC(=O)[C@H](NC(=O)[C@@H](Cc1c[nH]c2ccccc12)NC(=O)[C@@H](CS[C@@H]1CC(=O)N(CCCC(=O)N[C@@H](Cc2ccc3ccccc3c2)C(=O)NCCCC[C@@H](NC(=O)N[C@H](CCC(=O)O)C(=O)O)C(=O)O)C1=O)NC(=O)c1ccc(NNC(=O)CN2CCN(CC(=O)O)CCN(CC(=O)O)CCN(CC(=O)O)CC2)nc1)[C@H](C)CC)C(=O)N[C@H](CCC(N)=O)C(=O)N[C@H](CC(C)C)C(=O)O [[^177Lu]Lu–iPSMA–iGRP78, metal not drawn] ({DOTA}-[X1][dC](X2)[dW][dI][dF][dP][dW][dI][dQ][dL]-OH)
Cytosolic internalization [1]: 10.44 ± 2.43% | Nuclear internalization [1]: 4.81 ± 0.94% | Dead cells (LNCaP cells): 69.93 ± 4.85% | Uptake in cellular cytosol and nucleus [2]: low uptake | Radiochemical purity, unchanged after incubation in PBS [3]: exceeding 97% | Maximum number of binding sites (Bmax) [4]: 0.048 nM | Kd [4]: 1.88 nM
